Assay [1] concerns antibodies in sera from SARS patients (sera 1a, 1b, 2, 6, 37, 62, London, SARS-yellow, SARS-green). It counts as binding, human. Details: Binding of serum 6 to linear peptides of protein X1 of SARS-CoV Urbani / Binding of serum 37 to linear peptides of protein X1 of SARS-CoV Urbani / Binding of serum 6 to looped/cyclic peptide (PEPSCAN-ELISA) / Binding of serum 37 to looped/cyclic peptide (PEPSCAN-ELISA) / Binding of serum 37 to looped/cyclic peptides of protein X1 of SARS-CoV Urbani / Binding of serum 6 to linear peptides of protein X2 / Binding of serum 37 to linear peptides of protein X2 / Binding of serum 37 to looped/cyclic peptides of protein X2 of SARS-CoV Urbani / Binding of serum 6 to linear peptides of protein M of SARS-CoV Urbani / Binding of serum 37 to linear peptides of protein M of SARS-CoV Urbani / Binding of serum 6 to looped/cyclic peptides of protein M of SARS-CoV Urbani / Binding of serum 37 to looped/cyclic peptides of protein M of SARS-CoV Urbani / Binding of serum 6 to linear peptides of protein X3 of SARS-CoV Urbani / Binding of serum 37 to linear peptides of protein X3 of SARS-CoV Urbani / Binding of serum 37 to looped/cyclic peptides of protein X3 of SARS-CoV Urbani / Binding of serum 6 to linear peptides of protein X4 of SARS-CoV Urbani / Binding of serum 37 to linear peptides of protein X4 of SARS-CoV Urbani / Binding of serum 37 to looped/cyclic peptides of protein X4 of SARS-CoV Urbani / Binding of serum 6 to linear peptides of protein X5 of SARS-CoV Urbani / Binding of serum 37 to linear peptides of protein X5 of SARS-CoV Urbani / Binding of serum 37 to looped/cyclic peptides of protein X5 of SARS-CoV Urbani / Binding of serum 6 to linear peptides of protein N of SARS-CoV Urbani / Binding of serum 37 to linear peptides of protein N of SARS-CoV Urbani / Binding of serum 6 to linear peptide (PEPSCAN-ELISA) / Binding of serum 1a to looped/cyclic peptides of protein N of SARS-CoV Urbani / Binding of serum 1b to looped/cyclic peptides of protein N of SARS-CoV Urbani / Binding of serum 2 to looped/cyclic peptides of protein N of SARS-CoV Urbani / Binding of serum 6 to looped/cyclic peptides of protein N of SARS-CoV Urbani / Binding of serum 37 to looped/cyclic peptides of protein N of SARS-CoV Urbani / Binding of serum 62 to looped/cyclic peptides of protein N of SARS-CoV Urbani / Binding of serum London to looped/cyclic peptides of protein N of SARS-CoV Urbani / Binding of serum SARS-green to looped/cyclic peptides of protein N of SARS-CoV Urbani: unit not given here.

In assay [2] the test system is control sera (pooled serum of ten healthy LUMC hospital workers; commercial negative donor pooled serum from the Dutch bloodbank). Type of assay: binding, human. More on the design: Binding of Control serum LUMC to linear peptides / Binding of Control serum Blood-bank to linear peptides / Binding of Control serum LUMC to looped peptides / Binding of Control Serum Blood-Bank to Looped peptides / Binding of Control serum LUMC to linear peptides of the protein M of SARS-CoV Urbani / Binding of Control serum Blood-bank to linear peptides of the protein M of SARS-CoV Urbani / Binding of Control serum LUMC to looped peptides of the protein M of SARS-CoV Urbani / Binding of Control Serum Blood-Bank to Looped peptides of the protein M of SARS-CoV Urbani: unit not given here.

Assay [3] has as its system rabbit serum obtained by immunizing a rabbit with the SARS-CoV strain Frankfurt 1. Type of assay: binding. Details: Binding of a rabbit serum to linear peptides / Binding of a rabbit serum to looped peptides / Rabbit serum linear peptides / Rabbit serum looped peptides / Binding of a rabbit serum to linear peptides of protein N of SARS-CoV Urbani (Rabbit serum linear peptides) / Binding of a rabbit serum to looped/cyclic peptides of protein N of SARS-CoV Urbani (Rabbit serum looped peptides): unit not given here.

Take VLLKEPCPSGTYEGN: in assay [1], the “Binding of serum 1a to linear peptides of protein X4 of SARS-CoV Urbani” value turned out to be 0.8, the “Binding of serum 1a to looped/cyclic peptides of protein X4 of SARS-CoV Urbani” value is on record as 0.8, the “Binding of serum 1b to linear peptides of protein X4 of SARS-CoV Urbani” value is given as 0.7 and the “Binding of serum 1b to looped/cyclic peptides of protein X4 of SARS-CoV Urbani” value came to 0.7. For the same sequence, in assay [1], the “Binding of serum 2 to linear peptides of protein X4 of SARS-CoV Urbani” value came out at 0.4, the “Binding of serum 2 to looped/cyclic peptides of protein X4 of SARS-CoV Urbani” value is 0.6, the “Binding of serum 6 to linear peptides of protein X4 of SARS-CoV Urbani” value is listed as 0.7 and the “Binding of serum 6 to looped/cyclic peptides of protein X4 of SARS-CoV Urbani” value is reported as 0.7. In assay [1], the “Binding of serum 37 to linear peptides of protein X4 of SARS-CoV Urbani” value stood at 0.7, the “Binding of serum 37 to looped/cyclic peptides of protein X4 of SARS-CoV Urbani” value amounted to 0.8, the “Binding of serum 62 to linear peptides of protein X4 of SARS-CoV Urbani” value turned out to be 0.8 and the “Binding of serum 62 to looped/cyclic peptides of protein X4 of SARS-CoV Urbani” value is reported as 0.7. Moreover, in assay [1], the “Binding of serum London to linear peptides of protein X4 of SARS-CoV Urbani” value stood at 0.8, the “Binding of serum London to looped/cyclic peptides of protein X4 of SARS-CoV Urbani” value was 0.3, the “Binding of serum SARS-green to linear peptides of protein X4 of SARS-CoV Urbani” value stood at 0.6 and the “Binding of serum SARS-green to looped/cyclic peptides of protein X4 of SARS-CoV Urbani” value came to 0.5. Moreover, in assay [1], the “Binding of serum SARS-yellow to linear peptides of protein X4 of SARS-CoV Urbani” value was 0.1 and the “Binding of serum SARS-yellow to looped/cyclic peptides of protein X4 of SARS-CoV Urbani” value was 0.4. In assay [2], the “Binding of Control Serum Blood-Bank to Looped peptides” value is on record as 0.9, the “Binding of Control serum Blood-bank to linear peptides” value is 0.8, the “Binding of Control serum LUMC to linear peptides” value was determined as 0.7 and the “Binding of Control serum LUMC to looped peptides” value was found to be 0.8. Moreover, in assay [3], the “Rabbit serum linear peptides” value turned out to be 0.4 and the “Rabbit serum looped peptides” value amounted to 0.3.
Turning to VLPFHRWHTMVQTCT, in assay [1], the “Binding of serum 1a to linear peptides of protein X5 of SARS-CoV Urbani” value amounted to 0.8, the “Binding of serum 1a to looped/cyclic peptides of protein X5 of SARS-CoV Urbani” value is given as 0.7, the “Binding of serum 1b to linear peptides of protein X5 of SARS-CoV Urbani” value is 0.6 and the “Binding of serum 1b to looped/cyclic peptides of protein X5 of SARS-CoV Urbani” value amounted to 0.5. In assay [1], the “Binding of serum 2 to linear peptides of protein X5 of SARS-CoV Urbani” value is recorded as 0.7, the “Binding of serum 2 to looped/cyclic peptides of protein X5 of SARS-CoV Urbani” value was determined as 0.7, the “Binding of serum 6 to linear peptides of protein X5 of SARS-CoV Urbani” value was 0.5 and the “Binding of serum 6 to looped/cyclic peptides of protein X5 of SARS-CoV Urbani” value is given as 0.4. Also, in assay [1], the “Binding of serum 37 to linear peptides of protein X5 of SARS-CoV Urbani” value is reported as 0.7, the “Binding of serum 37 to looped/cyclic peptides of protein X5 of SARS-CoV Urbani” value came out at 0.5, the “Binding of serum 62 to linear peptides of protein X5 of SARS-CoV Urbani” value came out at 0.7 and the “Binding of serum 62 to looped/cyclic peptides of protein X5 of SARS-CoV Urbani” value is given as 0.3. In assay [1], the “Binding of serum London to linear peptides of protein X5 of SARS-CoV Urbani” value was 0.8, the “Binding of serum London to looped/cyclic peptides of protein X5 of SARS-CoV Urbani” value is reported as 0.2, the “Binding of serum SARS-green to linear peptides of protein X5 of SARS-CoV Urbani” value is reported as 0.6 and the “Binding of serum SARS-green to looped/cyclic peptides of protein X5 of SARS-CoV Urbani” value was 1.4. Besides, in assay [1], the “Binding of serum SARS-yellow to linear peptides of protein X5 of SARS-CoV Urbani” value was 0.4 and the “Binding of serum SARS-yellow to looped/cyclic peptides of protein X5 of SARS-CoV Urbani” value was 0.3. Also, in assay [2], the “Binding of Control Serum Blood-Bank to Looped peptides” value was 0.6, the “Binding of Control serum Blood-bank to linear peptides” value stood at 0.6, the “Binding of Control serum LUMC to linear peptides” value is 0.5 and the “Binding of Control serum LUMC to looped peptides” value is recorded as 0.0. In assay [3], the “Rabbit serum linear peptides” value is on record as 0.6 and the “Rabbit serum looped peptides” value is recorded as 0.0.
As for VPLRGTIVTRPLMES, in assay [1], the “Binding of serum 1a to linear peptides of protein M of SARS-CoV Urbani” value was 0.7, the “Binding of serum 1b to linear peptides of protein M of SARS-CoV Urbani” value was 0.6, the “Binding of serum 2 to linear peptides of protein M of SARS-CoV Urbani” value is 0.7 and the “Binding of serum 6 to linear peptides of protein M of SARS-CoV Urbani” value is 0.4. In assay [1], the “Binding of serum 37 to linear peptides of protein M of SARS-CoV Urbani” value is 0.6, the “Binding of serum 62 to linear peptides of protein M of SARS-CoV Urbani” value was 0.5, the “Binding of serum London to linear peptides of protein M of SARS-CoV Urbani” value is 0.4 and the “Binding of serum SARS-green to linear peptides of protein M of SARS-CoV Urbani” value was determined as 0.5. In assay [1], the “Binding of serum SARS-yellow to linear peptides of protein M of SARS-CoV Urbani” value turned out to be 0.4; the “Recognition of the peptide by sera of SARS-CoV infected individuals, and form (linear, looped/cyclic) in which it is recognized” value is on record as “recognized in looped/cyclic form”. In assay [2], the “Binding of Control Serum Blood-Bank to Looped peptides of the protein M of SARS-CoV Urbani” value was found to be 0.6, the “Binding of Control serum Blood-bank to linear peptides of the protein M of SARS-CoV Urbani” value was found to be 0.9, the “Binding of Control serum LUMC to linear peptides of the protein M of SARS-CoV Urbani” value came to 0.6 and the “Binding of Control serum LUMC to looped peptides of the protein M of SARS-CoV Urbani” value came to 0.7. Further, in assay [3], the “Rabbit serum linear peptides” value came to 0.1 and the “Rabbit serum looped peptides” value came to 0.6.
Turning to VQIHTIDGSSGVANP, in assay [1], the “Binding of serum 1a to linear peptides of protein X1 of SARS-CoV Urbani” value is 0.7, the “Binding of serum 1a to looped/cyclic peptides of protein X1 of SARS-CoV Urbani” value came out at 0.4, the “Binding of serum 1b to linear peptides of protein X1 of SARS-CoV Urbani” value was 0.5 and the “Binding of serum 1b to looped/cyclic peptides of protein X1 of SARS-CoV Urbani” value is 0.4. Further, in assay [1], the “Binding of serum 2 to linear peptides of protein X1 of SARS-CoV Urbani” value is recorded as 0.6, the “Binding of serum 2 to looped/cyclic peptides of protein X1 of SARS-CoV Urbani” value stood at 0.3, the “Binding of serum 6 to linear peptides of protein X1 of SARS-CoV Urbani” value is 0.6 and the “Binding of serum 6 to looped/cyclic peptides of protein X1 of SARS-CoV Urbani” value was determined as 0.3. In addition, in assay [1], the “Binding of serum 37 to linear peptides of protein X1 of SARS-CoV Urbani” value amounted to 0.7, the “Binding of serum 37 to looped/cyclic peptides of protein X1 of SARS-CoV Urbani” value was 0.4, the “Binding of serum 62 to linear peptides of protein X1 of SARS-CoV Urbani” value was 0.6 and the “Binding of serum 62 to looped/cyclic peptides of protein X1 of SARS-CoV Urbani” value worked out at 0.5. In assay [1], the “Binding of serum London to linear peptides of protein X1 of SARS-CoV Urbani” value was 0.3, the “Binding of serum London to looped/cyclic peptides of protein X1 of SARS-CoV Urbani” value was determined as 0.2, the “Binding of serum SARS-green to linear peptides of protein X1 of SARS-CoV Urbani” value is given as 0.2 and the “Binding of serum SARS-green to looped/cyclic peptides of protein X1 of SARS-CoV Urbani” value was 0.3. Also, in assay [1], the “Binding of serum SARS-yellow to linear peptides of protein X1 of SARS-CoV Urbani” value worked out at 0.4 and the “Binding of serum SARS-yellow to looped/cyclic peptides of protein X1 of SARS-CoV Urbani” value turned out to be 0.1. In assay [2], the “Binding of Control Serum Blood-Bank to Looped peptides” value was found to be 0.3, the “Binding of Control serum Blood-bank to linear peptides” value came to 0.5, the “Binding of Control serum LUMC to linear peptides” value was 0.5 and the “Binding of Control serum LUMC to looped peptides” value turned out to be 0.4. In addition, in assay [3], the “Binding of a rabbit serum to linear peptides” value was 0.1 and the “Binding of a rabbit serum to looped peptides” value was determined as 0.4.

(Values after patent US20070128217A1 (priority 2003, published 2007).)
